In PMC10993414, “Water Quality Monitoring with the Multiplexed Assay MitoOxTox for Mitochondrial Toxicity, Oxidative Stress Response, and Cytotoxicity in AREc32 Cells” (Environmental Science & Technology, 2024):

Columns and labels:
[1] = ref Cessna et al. 1978; cited from earlier work
[2] = system: mitochondrial membrane potential (MMP) in AREc32 cells; experiment: Disruption of mitochondrial membrane potential (m-MPI red/green ratio), MitoOxTox; conditions: AREc32, 24 h exposure

Which “pKa (Acid)” value [1] does the source give for `N#Cc1cc(Br)c(O)c(Br)c1` [Bromoxynil] here?
Its value is 4.21.

What about the “MMP inhibition EC10” value ([2]; 10% reduction of MMP) of the same molecule?
Its value is 21.9 µM.

What about the “MMP inhibition log(EC10 (M))” value ([2]; logarithm of EC10) of the same molecule?
Its value is -4.66 M.
